# Where two headings read alike, the source gives them in different places.
# How the values were obtained:
# [1] = Pharmacokinetics of Senicapoc in sheep plasma; type: in vivo; details: 30 mg/kg po b.i.d.; relative to levels required to block KCa3.1
# Method: Since statistically significant effects were observed on lung resistance and airway hyper-reactivity following the 30 mg/kg dose, this level of exposure is sufficient to achieve efficacy in the sheep model. FIG. 7 illustrates exposure in man following administration of a range of doses. The average efficacious plasma level from the sheep model is illustrated by the dashed line.
# [2] = tested on: human lung mast cells (HLMC); experiment: HLMC chemotaxis (mast cell migration) assay, Transwell system; type: cell-based; details: airway smooth muscle-conditioned media; 10, 100, 1000 nM; 3 hours
# Method: Mast cell migration studies were then performed by a method similar to as described in the method of Cruse et al. (Thorax. 2006 61:880-5). Briefly, HLMC chemotaxis assays were performed using the Transwell system with 24 wells. Airway smooth muscle-conditioned media was placed in the lower wells. […] After incubating the cells for 3 hours at 37° C., the number of HLMC in the bottom well were counted using Kimura stain in a hemocytometer. HLMC migration was calculated as the fold increase of migrated cells in the test wells compared with the negative control containing no chemoattractant in the lower well (FIG. 1).
# Half-life in blood = type: in vitro ADME; details: including human blood
# Excerpt: Triphenylacetamide-based K^+-channel blockers are promising candidates for the treatment of sickle cell disease (SCD) as discussed in U.S. Pat. No. 6,288,122 which is herein incorporated by reference. In addition, studies indicate that triphenylacetamide-based inhibitors are potential candidate drugs for the treatment of inflammatory conditions.
# [3] = cited from earlier work; for mean Cmax / mean total systemic dose / oral clearance rate / terminal half-life: patients with sickle cell disease
# [4] = Inhaled allergen challenge in human subjects, placebo vs Senicapoc, 13 days; type: in vivo; details: for fraction of exhaled nitric oxide: after 13 days of treatment, no change in placebo group
# Method: FIG. 9. FIG. 9A study design. […] FIG. 9B. Change in FEV1 over time past allergen challenge (AC) in human subjects. The late allergen response (LAR) is the decline in FEV1 4 to 10 hours after patients were challenged with an inhaled allergen. The magnitude of the decline in LAR is quantified as the area bounded by the baseline FEV1 (0%), and the actual FEV1 measurements between hours 4 and 10. Subjects randomized to 13 days of treatment with placebo had no change in the LAR (left panel). […] By analysis of co-variance, the difference in LAR at Day 13 between the two treatment groups was 29%.
# By analysis of co-variance, the difference in late airway responsiveness between the two treatment groups was 29% (see, FIG. 9B). In addition, the fraction of nitric oxide exhaled by Senicapoc-treated group declined with no change seen in the placebo group (data not shown).
# recombinant human KCa3.1 = recombinant human KCa3.1 (Homo sapiens, UniProt O15554); experiment: Whole patch clamp of potassium currents in CHO cells stably expressing recombinant human KCa3.1; type: cell-based; details: 1000 nM Senicapoc; FIG. 2 right panel; cell type not stated
# A. suum sensitized sheep = experiment: Ascaris suum allergen challenge model of asthma in sheep; type: in vivo
# Method: Briefly, baseline lung resistance (RL) and carbachol concentration response curves were obtained prior to A. suum challenge in sheep. […] Lung resistance was subsequently measured at 0, 1, 2, 3, and 4 hours post allergen challenge to assess early airway responses and at 5, 6, 6.5, 7, 7.5 and 8 hours to assess late airway responses. At 24 hours post challenge, airway hyper-reactivity was determined based on responses to increasing doses of carbachol. Data were analyzed by a one way ANOVA followed by Dunnett's post hoc test when more than 2 groups were compared, or by a t-test when only 2 groups were compared.
smiles,measurement,setting,value
"NC(=O)C(c1ccccc1)(c1ccc(F)cc1)c1ccc(F)cc1 [Senicapoc, 2,2-bis(4-fluorophenyl)-2-phenylacetamide]",plasma exposure corrected for protein binding,[1],sustained levels significantly above those required to block KCa3.1
same,HLMC migration resulting from inflammatory stimuli,[2],inhibits
same,half-life in blood,Half-life in blood,long half-life
same,mean elimination half-life,"[3]; oral dose, across three clinical studies, 68 patients",12 to 17 days
same,mean Cmax,[3]; 50 mg single dose,59.1 ng/mL
same,mean total systemic dose,[3]; 50 mg single dose,"11,826 ng·hr/ml"
same,oral clearance rate,[3]; 50 mg single dose,4.75 L/h
same,terminal half-life,[3]; 50 mg single dose,15.4 days
same,mean Cmax,[3]; 100 mg single dose,108.7 ng/mL
same,mean total systemic dose,[3]; 100 mg single dose,"19,696 ng·hr/ml"
same,oral clearance rate,[3]; 100 mg single dose,6.1 L/h
same,terminal half-life,[3]; 100 mg single dose,9.12 days
same,mean Cmax,[3]; 150 mg single dose,109.1 ng/mL
same,mean total systemic dose,[3]; 150 mg single dose,"30,675 ng·hr/ml"
same,oral clearance rate,[3]; 150 mg single dose,5.8 L/h
same,terminal half-life,[3]; 150 mg single dose,12.4 days
same,drug-related serious adverse events,[3]; phase I clinical studies,no drug-related serious adverse events
same,"difference in late airway responsiveness (LAR, FEV1 decline 4 to 10 hours) between Senicapoc and placebo groups","[4]; Day 13, 80 mg BID for three days, then 40 mg daily, analysis of co-variance",29%
same,fraction of exhaled nitric oxide,[4],declined
same,fraction of exhaled nitric oxide,[4]; listed as senicapoc,decreased
same,channel inhibition with varied voltage,recombinant human KCa3.1,nearly complete channel inhibition
same,reversal of the hyper-reactivity to carbachol,A. suum sensitized sheep; 30 mg/kg PO for 4 days,Complete reversal
same,apparent reduction in peak early response,"A. suum sensitized sheep; 30 mg/kg PO, not statistically significant",33%
same,average late allergen responses (lung resistance),"A. suum sensitized sheep; 5-8 hours after allergen challenge, oral, IV and inhalation routes",significantly attenuates
same,hyper-reactivity to aerosolized carbachol,"A. suum sensitized sheep; 24 hours post A. suum challenge, all three routes of administration",significantly reduced
same,reversal of the hyper-reactivity to carbachol,A. suum sensitized sheep; acute 10 mg/kg IV dosing,Complete reversal
same,peak early airway responses,"A. suum sensitized sheep; immediately after allergen challenge, 10 mg/kg IV",significantly reduced
